According to paper PMC6099635, “New Records of Potent In-Vitro Antidiabetic Properties of Dalbergia tonkinensis Heartwood and the Bioactivity-Guided Isolation of Active Compounds” (Molecules : A Journal of Synthetic Chemistry and Natural …, 2018):
One block for each molecule: values may come before it.

Assays:
Assay in all cases: colorimetric pNPG hydrolysis, […] nm
[1] = molecular target: T1, Saccharomyces cerevisiae (yeast) α-glucosidase; format: biochemical; details: pNPG substrate; 0.1 M potassium phosphate pH 7; 37 °C; 20 min pre-incubation, 30 min reaction
T1 construct: gene MAL12

Rat α-glucosidase = molecular target: T2, Rat α-glucosidase; format: biochemical; details: pNPG substrate; 0.1 M potassium phosphate pH 7; 37 °C; 20 min pre-incubation, 60 min reaction
T2 construct: gene Si; Sigma Aldrich preparation

[2] = molecular target: T3, Rice α-glucosidase (Type 4); format: biochemical, Oryza sativa; details: pNPG substrate; 0.1 M potassium phosphate pH 7; 37 °C; 20 min pre-incubation, 30 min reaction
T3 construct: gene Os06g0675700

Inhibition Expressed as EC50 (mg/mL) / Sativanone [1]: 0.23 ± 0.012 mg/mL | Inhibition Expressed as EC50 (mg/mL) / Sativanone (Rat α-glucosidase): 0.37 ± 0.022 mg/mL | Inhibition Expressed as EC50 (mg/mL) / Sativanone [2]: 0.81 ± 0.023 mg/mL
Structure (SMILES): COc1ccc(C2COc3cc(O)ccc3C2=O)c(OC)c1 (stereo not drawn) [compound 1, sativanone]

Structure (SMILES): COc1ccc(-c2coc3cc(O)ccc3c2=O)cc1 [compound 2, formononetin]
Inhibition Expressed as EC50 (mg/mL) / Formononetin [1]: 0.06 ± 0.002 mg/mL | Inhibition Expressed as EC50 (mg/mL) / Formononetin (Rat α-glucosidase): 0.23 ± 0.037 mg/mL | Inhibition Expressed as EC50 (mg/mL) / Formononetin [2]: 0.98 ± 0.029 mg/mL

Inhibition Expressed as EC50 (mg/mL) / Acarbose [1]: 1.321 ± 0.048 mg/mL | Inhibition Expressed as EC50 (mg/mL) / Acarbose (Rat α-glucosidase): 0.121 ± 0.001 mg/mL | Inhibition Expressed as EC50 (mg/mL) / Acarbose [2]: 0.031 ± 0.005 mg/mL
Structure (SMILES): C[C@H]1O[C@H](O[C@H]2[C@H](O)[C@@H](O)[C@@H](O[C@H]3[C@H](O)[C@@H](O)C(O)O[C@@H]3CO)O[C@@H]2CO)[C@H](O)[C@@H](O)[C@@H]1N[C@H]1C=C(CO)[C@@H](O)[C@H](O)[C@H]1O (stereo partly drawn) [acarbose, reference compound]
